US20070274929A1, “ORAL COMPOSITION COMPRISING CHLORHEXIDINE AND MALTITOL OR ERYTHRITOL OR A MIXTURE THEREOF” (priority 2000, published 2007)

Test: Masking the bitterness of chlorhexidine, panel of trained taste assessors (sip-and-spit, labelled magnitude line scale)
Format: in vivo
Conditions: for difference of the bitterness of the CHXG/inhibitor mixture from the 0.1% CHXG reference (analysis of variance): ANOVA at the 5% level, reference 0.1% CHXG in 8% ethanol-water; for difference of the bitterness of the CHXG/inhibitor mixture from the 0.1% CHXG reference (analysis of variance) / % suppression of bitterness of 0.1% CHXG: n=18; for % suppression of bitterness of 0.1% CHXG: 8% w/w ethanol in water, reference bitterness set at 70 on line scale 0-100; for masking the bitter taste of chlorhexidine compared with xylitol: inhibitors at 2 & 4% w/w, 0.1% CHXG
Procedure: The efficacy of maltitol, erythritol and xylitol to mask the bitter taste of chlorhexidine digluconate (CHXG) was evaluated using a panel of trained taste assessors.
All test solutions were made up in still mineral water. All tasting sessions were carried out at room temperature (20° C.). Samples were made up w/v (unless otherwise specified) one day before tasting and stored in the refrigerator overnight, then allowed to equilibrate to room temperature the next day before serving.
Eighteen panellists volunteered for the study. The panellists were first screened for their taste acuity using basic identification ranking techniques. 0.20% sodium chloride, 0.054% citric acid, 0.8% sucrose, 0.04% caffeine and 0.15% potassium alum were used to determine their ability to sense and identify saltiness, sourness, sweetness, bitterness and astringency, respectively. The detection and identification thresholds for bitterness were then measured using eight increasing concentrations of quinine hydrochloride (over a range of 0-0.0012%). Panellists were also instructed to rank four random concentrations of caffeine in increasing order of bitterness intensity. A similar experiment was done using quinine hydrochloride. All panellists performed well in those tasks.
The screened panellists were then asked to assess the bitterness intensities of the chlorhexidine mixtures using a “Labelled magnitude line scale” (LMS) as defined by Green et al., Chemical Senses, 1996, 21, 323-334. Solutions were made up containing the bitter inhibitors, 0.1% w/w CHXG, 8% w/w ethanol in water. The following concentrations of inhibitors were used:
Two samples were presented at any one time, one of which was the reference (0.1% CHXG in 8% ethanol-water). Sample presentation was randomised and was duplicated during the course of the study.
The “sip-and-spit” method was used for tasting CHXG solutions. Panellists were instructed to sip 5 ml sample, swirl it around their mouth and spit it out immediately before judging its bitterness intensity. This technique was expected to take 3-4 seconds.
Panellists were instructed to taste the reference first and memorise its bitter intensity. This intensity was assigned the number 70 on the line scale marked 0-100. Panellists were asked to wait until they could no longer feel any bitterness in their mouths (approximately 10 min) before tasting the second solution, whose intensity they then ranked in proportion to the intensity of the reference on the same line scale. Panellists were provided with mineral water to cleanse their palates.
Analysis of Variance (ANOVA) at the 5% level of significance was performed using the EXCEL software to find out whether there were any significant differences between the CHXG reference and the CHXG/inhibitor mixtures. A Fisher Least Significant Difference (LSD) test (O'Mahony M, 1986, Sensory Evaluation of Food—Statistical Methods and Procedures, Marcel Dekker, Inc, New York) was carried out on those samples where a significant difference had been found, to identify which sample means differ from the reference.

[1] = inhibitor 2% w/w in 0.1% w/w CHXG
[2] = inhibitor 4% w/w in 0.1% w/w CHXG

SMILES | difference of the bitterness of the CHXG/inhibitor mixture from the 0.1% CHXG reference (analysis of variance) | % suppression of bitterness of 0.1% CHXG [1] [%] | % suppression of bitterness of 0.1% CHXG [2] [%] | masking the bitter taste of chlorhexidine compared with xylitol
OC[C@@H](O)[C@@H](O)CO [Erythritol] | significantly different | 29.2 | 28.2 | more effective than xylitol
OC[C@@H](O)[C@H](O)[C@@H](O)CO [Xylitol, reference compound] |  | 14.3 | 13.6 | 
OC[C@@H](O)[C@@H](O[C@H]1O[C@H](CO)[C@@H](O)[C@H](O)[C@H]1O)[C@H](O)[C@@H](O)CO [Maltitol] | significantly different | 26.9 | 32.6 | more effective than xylitol
